Source: patent US7977388B2, “Quinone derivative 2,3-dimethoxy-5-methyl-6-(10-hydroxydecyl)-1,4-benzoquinone for the treatment of muscular dystrophies” (Santhera Pharmaceuticals (Schweiz) AG, priority 2005, dated 2011)

System: dystrophin-deficient mdx mouse
Assay: Voluntary daily running performance of idebenone-treated mdx mice
Type: in vivo
Protocol: The effect of idebenone on the running performance was tested in the dystrophin-deficient mdx mouse, a validated animal model for DMD. Starting at day 21 of age, mdx mice were treated with idebenone. Their daily running performance was compared to mdx mice treated with vehicle only and to non-treated wild-type mice. For this, idebenone was dissolved in 0.5% w/v carboxymethylcellulose (CMC) to a final concentration of 20 mg/ml. Idebenone (20 mg/ml in 0.5% CMC) was applied once a day by gavage feeding. The final dose of idebenone at all time points was 200 mg/kg body weight. Control mice received the same amount of vehicle only. […] Idebenone treated mdx mice performed clearly better compared to the vehicle-treated mdx mice from the start of the analysis.

With `COC1=C(OC)C(=O)C(CCCCCCCCCCO)=C(C)C1=O` [idebenone, 2,3-dimethoxy-5-methyl-6-(10-hydroxydecyl)-1,4-benzoquinone] the “Total daily running distance” value (mdx mice treated daily with idebenone vs vehicle-treated mdx and wild-type mice, distance in meters) was “clearly increased” and the Daily running performance (mdx mice, 200 mg/kg body weight once a day by gavage in 0.5% CMC from day 21 of age, analysed 29-84 days of age, vs vehicle-treated mdx mice) was “prominent increase”.
